Measurements published in patent US6783949B1, “Processes for determining whether a test substance contains lipases or lipase inhibitors” (Aventis Pharma Deutschland GmbH, priority 1999, dated 2004).
Read-outs that look alike come from different tables or passages of the source.

Key:
[1] = molecular target: T1, HSL (Rattus norvegicus, UniProt P15304); experiment: Direct NAG assay (released NBD-FA, TLC/fluorimetry); type: biochemical; conditions: for Absorption change, Released NBD-FA, 550 nm: 60 min, NAG 0.05 mg/ml
T1 construct: The partially purified HSL can be stored at −70° C. for 4 to 6 weeks; from tissue; host or cells: rat epididymal fat cells (male Wistar rats)
T1 sequence (P15304 1-768 isoform P15304-2): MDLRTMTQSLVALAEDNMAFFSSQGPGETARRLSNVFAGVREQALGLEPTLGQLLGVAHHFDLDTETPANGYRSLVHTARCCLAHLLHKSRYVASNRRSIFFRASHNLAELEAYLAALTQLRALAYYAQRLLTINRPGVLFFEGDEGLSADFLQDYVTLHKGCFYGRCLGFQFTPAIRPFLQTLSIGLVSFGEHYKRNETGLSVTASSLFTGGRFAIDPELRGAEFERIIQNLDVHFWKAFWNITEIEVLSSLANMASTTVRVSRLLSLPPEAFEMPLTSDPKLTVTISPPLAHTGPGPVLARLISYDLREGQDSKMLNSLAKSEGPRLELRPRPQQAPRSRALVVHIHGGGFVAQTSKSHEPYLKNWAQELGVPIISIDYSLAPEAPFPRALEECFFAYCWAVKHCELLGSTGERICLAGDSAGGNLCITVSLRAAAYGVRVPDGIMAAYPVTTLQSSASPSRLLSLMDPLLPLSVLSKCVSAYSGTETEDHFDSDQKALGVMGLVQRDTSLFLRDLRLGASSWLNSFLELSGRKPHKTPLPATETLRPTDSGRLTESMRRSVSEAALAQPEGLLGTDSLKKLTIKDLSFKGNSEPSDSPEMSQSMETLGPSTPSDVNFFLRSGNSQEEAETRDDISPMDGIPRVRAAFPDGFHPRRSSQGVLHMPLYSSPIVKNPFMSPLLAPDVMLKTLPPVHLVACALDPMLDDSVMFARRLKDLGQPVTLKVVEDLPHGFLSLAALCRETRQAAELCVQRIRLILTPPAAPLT
Description: Isolated rat fat cells are obtained from epididymal fatty tissue from untreated male rats (Wistar, 220-250 g) by collagenase treatment according to published processes. The fat cells from 10 rats are washed three times by flotation with 50 ml each of homogenization buffer ([…], pH 7.4, 0.25 M sucrose, 1 mM ethylenediamine-N,N,N′,N′-tetraacetic acid (EDTA), 1 mM dithiothreitol (DTT), 10 μg/ml of leupeptin, 10 μg/ml of antipain, 20 μg/ml of pepstatin) and finally taken up in 10 ml of homogenization buffer. The fat cells are homogenized in a Teflon-in-glass homogenizer (Braun-Melsungen) by 10 strokes at 1500 rpm and 15° C. The homogenizate is centrifuged (Sorvall SM24 tubes, 5000 rpm, 10 min, 4° C.). The […] between the overlying fatty layer and the pellet is removed and the centrifugation is repeated. The […] resulting from this is centrifuged again (Sorvall SM24 tubes, 20,000 rpm, 45 min, 4° C.). […] After incubation for 60 min at 4° C. (shake at intervals of 15 min), the batch is centrifuged (Sorvall SM24 tubes, 3000 rpm, 10 min, 4° C.). The supernatant is brought to pH 5.2 by addition of glacial acetic acid and incubated at 4° C. for 30 min. The precipitates are collected by centrifugation (Sorvall SS34, 12,000 rpm, 10 min, 4° C.) and suspended in 2.5 ml of 20 mM TRIS/HCl, pH 7.0, 1 mM EDTA, 65 mM NaCl, 13% sucrose, 1 mM DTT, 10 μg/ml of leupeptin/pepstatin/antipain. The suspension is dialyzed overnight at 4° C. against 25 mM TRIS/HCl, pH 7.4, 50% glycerol, 1 mM DTT, and 10 μg/ml of leupeptin, pepstatin, and antipain and then applied to a hydroxylapatite column (0.1 g per 1 ml of suspension, equilibrated with 10 mM potassium phosphate, pH 7.0, 30% glycerol, 1 mM DTT). The column is washed with four volumes of equilibration buffer at a flow rate of 20 to 30 ml/h. The HSL is eluted with a volume of equilibration buffer which contains 0.5 M potassium phosphate, then dialyzed (see above) and concentrated 5 to 10 times by ultrafiltration (Amicon Diaflo PM 10 filter) at 4° C. The partially purified HSL can be stored at −70° C. for 4 to 6 weeks.
6 mg of phosphatidylcholine and 6 mg of phosphatidylinositol are dissolved in 1 ml of chloroform each. 10 mg of NAG are dissolved in 1 ml of chloroform. Two parts of phosphatidylinositol solution (e.g., 83.5 μl) and one part of phosphatidylcholine solution (e.g., 41.5 μl) and 100 μl of NAG solution are pipetted together into plastic scintillation containers (final concentration in the test: 0.0375 mg of phospholipid/ml; 0.05 mg/NAG/ml). The chloroform (225 μl total volume) is completely removed by overblowing with a stream of N2. The dried substrate can be stored at 4° C. for up to three days. For the preparation of the phospholipid vesicles/micelles having intercalated NAG (on the test day), the dried substrate is taken up in 20 ml of assay buffer (25 mM TRIS/HCl, pH 7.4; 150 mM NaCl) and two ultrasonic treatments with an ultrasonic probe (Branson Sonifier type 11, standard microtip): 1st treatment setting 2, 2×1 min, in between in each case 1 min on ice; 2nd treatment setting 4, 2×1 min, in between in each case 1 min on ice. During this procedure, the color of the substrate solution changed from yellow (extinction maximum 481 nm) to red (extinction maximum 550 nm) due to intercalation of NAG between the phospholipid molecules of the vesicles/micelles. Before use as a substrate (within the next 2 h), the solution is additionally incubated on ice for 15 min.
Altematively to the measurement of the extinction change of the substrate solution, the products of the HSL reaction are investigated by phase separation/thin-layer chromatography. For this, the incubation batch (200 μl total volume, see indirect NAG assay) is mixed in 2 ml Eppendorf vessels with 1.3 ml of methanol/chloroform/heptane (10:9:7) and then with 0.4 ml of 0.1 M NaOH. After intensive mixing (10 sec), the phase separation is initiated by centrifugation (800×g, 20 min, room temperature). […]

[2] = molecular target: PC-specific phospholipase from Bacillus cereus (Bacillus cereus, UniProt P09598); type: biochemical; conditions: for Increase in the absorption at 481 nm: PLC, 60 min, NAG 0.05 mg/ml
Sequence of PC-specific phospholipase from Bacillus cereus (P09598 39-283 limits assumed): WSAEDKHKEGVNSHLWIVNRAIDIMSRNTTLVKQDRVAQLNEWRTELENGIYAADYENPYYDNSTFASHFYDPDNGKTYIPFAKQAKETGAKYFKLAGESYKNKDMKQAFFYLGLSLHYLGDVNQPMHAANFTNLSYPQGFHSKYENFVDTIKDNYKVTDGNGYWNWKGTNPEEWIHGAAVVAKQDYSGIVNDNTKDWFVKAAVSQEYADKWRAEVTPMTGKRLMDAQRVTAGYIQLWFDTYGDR

Structure (SMILES): O=C(CCCCCCCCCCCNc1ccc([N+](=O)[O-])c2nonc12)OCC(O)CO (racemic) [Compound 3]
- IC50 [1]: 1020 ± 250 nM

Structure (SMILES): O=C(CCCCCCCCCCCNc1ccc([N+](=O)[O-])c2nonc12)OCC(O)CO (stereo not drawn) [Compound (3)]
- Absorption change, Released NBD-FA, 550 nm ([1]; HSL 1 μg): 17 ± 2 arb. units
- Absorption change, Released NBD-FA, 550 nm ([1]; HSL 2 μg): 44 ± 5 arb. units
- Absorption change, Released NBD-FA, 550 nm ([1]; HSL 5 μg): 103 ± 11 arb. units
- Absorption change, Released NBD-FA, 550 nm ([1]; HSL 7.5 μg): 157 ± 21 arb. units
- Absorption change, Released NBD-FA, 550 nm ([1]; HSL 10 μg): 215 ± 24 arb. units
- Absorption change, Released NBD-FA, 550 nm ([1]; HSL 15 μg): 320 ± 29 arb. units
- Absorption change, Released NBD-FA, 550 nm ([1]; HSL 20 μg): 432 ± 53 arb. units
- Absorption change, Released NBD-FA, 550 nm ([1]; HSL 25 μg): 544 ± 61 arb. units
- Absorption change, Released NBD-FA, 550 nm ([1]; HSL 30 μg): 616 ± 56 arb. units
- Absorption change, Released NBD-FA, 550 nm ([1]; HSL 40 μg): 693 ± 67 arb. units
- Absorption change, Released NBD-FA, 550 nm ([1]; HSL 60 μg): 733 ± 80 arb. units
- Absorption change, Released NBD-FA, 550 nm ([1]; HSL 80 μg): 746 ± 98 arb. units
- Increase in the absorption at 481 nm ([2]; enzyme 10 arb. units): 0 arb. units
- Increase in the absorption at 481 nm ([2]; enzyme 20 arb. units): 1 ± 1 arb. units
- Increase in the absorption at 481 nm ([2]; enzyme 50 arb. units): 2 ± 2 arb. units
- Increase in the absorption at 481 nm ([2]; enzyme 75 arb. units): 2 ± 1 arb. units
- Increase in the absorption at 481 nm ([2]; enzyme 100 arb. units): 3 ± 1 arb. units
- Increase in the absorption at 481 nm ([2]; enzyme 150 arb. units): 3 ± 1 arb. units
- Increase in the absorption at 481 nm ([2]; enzyme 200 arb. units): 5 ± 2 arb. units
- Increase in the absorption at 481 nm ([2]; enzyme 250 arb. units): 5 ± 2 arb. units
- Increase in the absorption at 481 nm ([2]; enzyme 300 arb. units): 7 ± 3 arb. units
- Increase in the absorption at 481 nm ([2]; enzyme 400 arb. units): 10 ± 3 arb. units
- Activity relative to HSL ([2]; bacterial PC-specific phospholipase, conditions optimized for HSL): virtually inactive
